Measurements taken from US20260062422A1 (Halda Therapeutics OpCo, Inc., priority 2022, published 2026).

Legend:
VCaP cells = experiment: Cellular growth inhibition assay for VCaP cells, CellTiter-Glo; format: cell-based, human; conditions: Homo sapiens, VCaP, 72 h, 72 hours treatment, CellTiter-Glo 2.0
Procedure, shortened: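 GI50 values come from four-parameter curve fits of luminescence data normalized to a zero baseline. Compound, in medium with 0.5% DMSO, was added one day after plating and left for 72 h before CellTiter-Glo 2.0 addition.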

[1] = tested on: T-Rex 293 cell line SC3 cells lacking increased expression of androgen receptor protein; experiment: Cellular growth inhibition, T-Rex 293 SC3 cells without doxycycline, CellTiter-Glo; format: cell-based; conditions: 72 h, T-Rex 293 SC3 cells not exposed to doxycycline, CellTiter-Glo 2.0
Procedure, shortened: (§1)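 GI50 came from a four-parameter fit of CellTiter-Glo 2.0 luminescence after 72 h compound exposure (0.5% DMSO, 37 °C), dosing 24 h post-seeding. SC3 clone cells (2500/well), transfected with wild-type androgen receptor, grew in charcoal-stripped serum medium lacking phenol red, induced with 10 ng/mL doxycycline or left uninduced.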

T47D cells = experiment: Cellular growth inhibition assay for T47D cells, CellTiter-Glo; format: cell-based, human; conditions: Homo sapiens, T47D, 72 h, 72 hours treatment, CellTiter-Glo 2.0 cell viability
Procedure, shortened: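 Luminescence from CellTiter-Glo 2.0 after 72 h of compound exposure gives the viability signal. Cells grew in insulin-supplemented (0.2 units/mL) DMEM with 10% FBS and were treated one day after seeding at 0.5% DMSO. GI50 values come from four-parameter nonlinear regression.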

[2] = tested on: T-Rex 293 cell line SC3 cells having increased expression of androgen receptor protein due to exposure to doxycycline; experiment: Cellular growth inhibition, T-Rex 293 SC3 cells with doxycycline (androgen receptor induced), CellTiter-Glo; format: cell-based; conditions: 72 h, T-Rex 293 SC3 cells with 10 ng/mL doxycycline (increased androgen receptor expression)
Procedure, shortened: as §1

Row | Compound | GI50 (VCaP cells) | GI50 (T47D cells) | GI50 [1] | GI50 [2]
1 | Cc1sc2c(c1C)C(c1ccc(C(=O)N3CC[C@]4(CCCN(c5ncc(C(=O)N[C@H]6C(C)(C)[C@H](Oc7ccc(C#N)c(Cl)c7)C6(C)C)cn5)C4)C3)cc1)=N[C@H](Cc1ncco1)c1nnc(C)n1-2 [Compound I-259] | 1500 to 3000 nM | 500 to 1500 nM | > 3000 nM | < 500 nM
2 | Cc1sc2c(c1C)C(c1ccc(O[C@@H]3CCCN(c4ncc(C(=O)N[C@H]5C(C)(C)[C@H](Oc6ccc(C#N)c(Cl)c6)C5(C)C)cn4)C3)cc1)=N[C@@H](Cc1ncco1)c1nnc(C)n1-2 [Compound I-260] | < 500 nM | < 500 nM | 1500 to 3000 nM | < 500 nM
3 | Cc1sc2c(c1C)C(c1ccc(OC3CCN(c4ncc(C(=O)N[C@H]5C(C)(C)[C@H](Oc6ccc(C#N)c(Cl)c6)C5(C)C)cn4)CC3)cc1)=N[C@@H](C)c1nnc(C)n1-2 [Compound I-261] | 500 to 1500 nM | 500 to 1500 nM | 1500 to 3000 nM | < 500 nM
4 | Cc1sc2c(c1C)C(c1ccc(OC3CC4(CCN(c5ncc(C(=O)N[C@H]6C(C)(C)[C@H](Oc7ccc(C#N)c(Cl)c7)C6(C)C)cn5)CC4)C3)cc1)=N[C@@](C)(C(C)c1ncco1)c1nnc(C)n1-2 (stereo partly shown) [Compound I-262] | > 3000 nM | > 3000 nM | > 3000 nM | < 500 nM
5 | Cc1sc2c(c1C)C(c1ccc(CNC(=O)C3CCN(c4ncc(C(=O)N[C@H]5C(C)(C)[C@H](Oc6ccc(C#N)c(Cl)c6)C5(C)C)cn4)CC3)cc1)=N[C@@H](Cc1ncco1)c1nnc(C)n1-2 [Compound I-263] | < 500 nM | < 500 nM | 1500 to 3000 nM | < 500 nM
6 | Cc1sc2c(c1C)C(c1ccc(CNC(=O)[C@H]3CCCN(c4ncc(C(=O)N[C@H]5C(C)(C)[C@H](Oc6ccc(C#N)c(Cl)c6)C5(C)C)cn4)C3)cc1)=N[C@@H](Cc1ncco1)c1nnc(C)n1-2 [Compound I-264] | < 500 nM | < 500 nM | < 500 nM | < 500 nM
7 | Cc1sc2c(c1C)C(c1ccc(CNC(=O)[C@@H]3CCCN(c4ncc(C(=O)N[C@H]5C(C)(C)[C@H](Oc6ccc(C#N)c(Cl)c6)C5(C)C)cn4)C3)cc1)=N[C@@H](Cc1ncco1)c1nnc(C)n1-2 [Compound I-265] | < 500 nM | < 500 nM | 1500 to 3000 nM | < 500 nM
8 | Cc1sc2c(c1C)C(c1ccc(CNC(=O)CN(C)c3ncc(C(=O)N[C@H]4C(C)(C)[C@H](Oc5ccc(C#N)c(Cl)c5)C4(C)C)cn3)cc1)=N[C@@H](Cc1ncco1)c1nnc(C)n1-2 [Compound I-266] | < 500 nM | 500 to 1500 nM | > 3000 nM | < 500 nM
9 | Cc1sc2c(c1C)C(c1ccc(C#C[C@H]3C[C@@]4(CCCN(c5ncc(C(=O)N[C@H]6C(C)(C)[C@H](Oc7ccc(C#N)c(Cl)c7)C6(C)C)cn5)C4)C3)cc1)=N[C@@H](Cc1ncco1)c1nnc(C)n1-2 [Compound I-268] | 1500 to 3000 nM | 500 to 1500 nM | > 3000 nM | < 500 nM
10 | Cc1sc2c(c1C)C(c1ccc(C#C[C@H]3C[C@]4(CCCN(c5ncc(C(=O)N[C@H]6C(C)(C)[C@H](Oc7ccc(C#N)c(Cl)c7)C6(C)C)cn5)C4)C3)cc1)=N[C@@H](Cc1ncco1)c1nnc(C)n1-2 [Compound I-269] | 1500 to 3000 nM | 500 to 1500 nM | > 3000 nM | < 500 nM
11 | Cc1sc2c(c1C)C(c1ccc(CCN3CC4(CCCN(c5ncc(C(=O)N[C@H]6C(C)(C)[C@H](Oc7ccc(C#N)c(Cl)c7)C6(C)C)cn5)C4)C3)cc1)=N[C@@H](Cc1ncco1)c1nnc(C)n1-2 [Compound I-272] | < 500 nM | < 500 nM | 500 to 1500 nM | < 500 nM
12 | Cc1sc2c(c1C)C(c1ccc(OC3CC4(CCN(c5ncc(C(=O)N[C@H]6C(C)(C)[C@H](Oc7ccc(C#N)c(Cl)c7)C6(C)C)cn5)CC4)C3)cc1)=N[C@](C)(C(C)c1ncco1)c1nnc(C)n1-2 (stereo partly shown) [Compound I-273] | > 3000 nM | > 3000 nM | > 3000 nM | < 500 nM
13 | Cc1sc2c(c1C)C(c1ccc(NCC(=O)N3CCC(c4ncc(C(=O)N[C@H]5C(C)(C)[C@H](Oc6ccc(C#N)c(Cl)c6)C5(C)C)cn4)CC3)cc1)=N[C@@H](Cc1ncco1)c1nnc(C)n1-2 [Compound I-274] | > 3000 nM | 500 to 1500 nM | > 3000 nM | < 500 nM
14 | Cc1sc2c(c1C)C(c1ccc(NCC(=O)N3CCC(c4ncc(C(=O)N[C@H]5C(C)(C)[C@H](Oc6ccc(C#N)c(Cl)c6)C5(C)C)cn4)CC3)cc1)=N[C@H](Cc1ncco1)c1nnc(C)n1-2 [Compound I-275] | < 500 nM | < 500 nM | < 500 nM | < 500 nM
15 | Cc1sc2c(c1C)C(c1ccc(N3CCC(CNC(=O)c4ncc(C(=O)N[C@H]5C(C)(C)[C@H](Oc6ccc(C#N)c(Cl)c6)C5(C)C)cn4)CC3)cc1)C[C@@H](Cc1ncco1)c1nnc(C)n1-2 (stereo partly shown) [Compound I-276] | 1500 to 3000 nM | > 3000 nM | > 3000 nM | > 3000 nM
16 | Cc1sc2c(c1C)C(c1ccc(CCCOC3CCN(c4ncc(C(=O)N[C@H]5C(C)(C)[C@H](Oc6ccc(C#N)c(Cl)c6)C5(C)C)cn4)CC3)cc1)=N[C@@H](Cc1cnccn1)c1nnc(C)n1-2 [Compound I-277] | > 3000 nM | > 3000 nM | > 3000 nM | < 500 nM

The next lines start with results.

Row | GI50 (VCaP cells) | GI50 (T47D cells) | Compound | GI50 [1] | GI50 [2]
17 | < 500 nM | < 500 nM | Cc1sc2c(c1C)C(c1ccc(CCCOC3CCN(c4ncc(C(=O)N[C@H]5C(C)(C)[C@H](Oc6ccc(C#N)c(Cl)c6)C5(C)C)cn4)CC3)cc1)=N[C@H](Cc1cnccn1)c1nnc(C)n1-2 [Compound I-278] | < 500 nM | < 500 nM
18 | 1500 to 3000 nM | < 500 nM | Cc1sc2c(c1C)C(c1ccc(OC3CC4(CCN(c5ncc(C(=O)N[C@H]6C(C)(C)[C@H](Oc7ccc(C#N)c(Cl)c7)C6(C)C)cn5)CC4)C3)cc1)=N[C@@H](Cc1ncon1)c1nnc(C)n1-2 [Compound I-279] | > 3000 nM | < 500 nM
19 | < 500 nM | > 3000 nM | Cc1sc2c(c1C)C(c1ccc(OC3CC4(CCN(c5ncc(C(=O)N[C@H]6C(C)(C)[C@H](Oc7ccc(C#N)c(Cl)c7)C6(C)C)cn5)CC4)C3)cc1)=N[C@@H](CC(C)(C)O)c1nnc(C)n1-2 [Compound I-280] | > 3000 nM | < 500 nM
20 | < 500 nM | < 500 nM | Cc1sc2c(c1C)C(c1ccc(O[C@H]3C[C@@H](N(C(C)C)C4CCN(c5ncc(C(=O)N[C@H]6C(C)(C)[C@H](Oc7ccc(C#N)c(Cl)c7)C6(C)C)cn5)CC4)C3)cc1)=N[C@@H](Cc1ncco1)c1nnc(C)n1-2 [Compound I-281] | 500 to 1500 nM | < 500 nM
21 | > 3000 nM | < 500 nM | Cc1sc2c(c1C)C(c1ccc(OC3CC4(C3)C[C@H](C)N(c3ncc(C(=O)N[C@H]5C(C)(C)[C@H](Oc6ccc(C#N)c(Cl)c6)C5(C)C)cn3)[C@@H](C)C4)cc1)=N[C@@H](Cc1ncco1)c1nnc(C)n1-2 (stereo partly shown) [Compound I-282] | > 3000 nM | < 500 nM
22 | < 500 nM | < 500 nM | Cc1sc2c(c1C)C(c1ccc(CCCN3CC4(C3)CN(c3ncc(C(=O)N[C@H]5C(C)(C)[C@H](Oc6ccc(C#N)c(Cl)c6)C5(C)C)cn3)C4)cc1)=N[C@@H](Cc1ncco1)c1nnc(C)n1-2 [Compound I-284] | 500 to 1500 nM | < 500 nM
23 | > 3000 nM | > 3000 nM | Cc1sc2c(c1C)C(c1ccc(C(=O)N3CCN(C(=O)c4ncc(C(=O)N[C@H]5C(C)(C)[C@H](Oc6ccc(C#N)c(Cl)c6)C5(C)C)cn4)CC3)cc1)=N[C@@H](Cc1ncco1)c1nnc(C)n1-2 [Compound I-285] | > 3000 nM | > 3000 nM
24 | > 3000 nM | > 3000 nM | Cc1sc2c(c1C)C(c1ccc(C(=O)N3CCN(C(=O)c4ncc(C(=O)N[C@H]5C(C)(C)[C@H](Oc6ccc(C#N)c(Cl)c6)C5(C)C)cn4)CC3)cc1)=N[C@H](Cc1ncco1)c1nnc(C)n1-2 [Compound I-286] | > 3000 nM | 500 to 1500 nM
25 | < 500 nM | < 500 nM | Cc1sc2c(c1C)C(c1ccc(CCC(=O)N3CCN(c4ncc(C(=O)N[C@H]5C(C)(C)[C@H](Oc6ccc(C#N)c(Cl)c6)C5(C)C)cn4)CC3)cc1)=N[C@@H](Cc1ncco1)c1nnc(C)n1-2 [Compound I-287] | < 500 nM | < 500 nM
26 | > 3000 nM | > 3000 nM | Cc1sc2c(c1C)C(c1ccc(C(=O)N3CCC(Cc4ncc(C(=O)N[C@H]5C(C)(C)[C@H](Oc6ccc(C#N)c(Cl)c6)C5(C)C)cn4)CC3)cc1)=N[C@@H](Cc1ncco1)c1nnc(C)n1-2 [Compound I-288] | > 3000 nM | > 3000 nM
27 | 500 to 1500 nM | > 3000 nM | Cc1sc2c(c1C)C(c1ccc(C(=O)N3CCC(Cc4ncc(C(=O)N[C@H]5C(C)(C)[C@H](Oc6ccc(C#N)c(Cl)c6)C5(C)C)cn4)CC3)cc1)=N[C@H](Cc1ncco1)c1nnc(C)n1-2 [Compound I-289] | > 3000 nM | < 500 nM
28 | < 500 nM | 1500 to 3000 nM | Cc1sc2c(c1C)C(c1ccc(CN3CCN(C(=O)c4ncc(C(=O)N[C@H]5C(C)(C)[C@H](Oc6ccc(C#N)c(Cl)c6)C5(C)C)cn4)CC3)cc1)=N[C@@H](Cc1ncco1)c1nnc(C)n1-2 [Compound I-290] | 500 to 1500 nM | < 500 nM
